Measurements: PubChem BioAssay AID1259407 (Chemical Carcinogenesis Research Information System (CCRIS), 2018)
The source made the active and inactive calls. No rule for the calls is given here.

Tested on: CCRIS mutagenicity, Ames/micronucleus/aberration tests
Test: CCRIS mutagenicity studies
[1] = Test System: AMES SALMONELLA TYPHIMURIUM, Strain/Indicator: TA98, Metabolic Activation: NONE, Method: STANDARD PLATE
[2] = Test System: AMES SALMONELLA TYPHIMURIUM, Strain/Indicator: TA100, Metabolic Activation: NONE, Method: STANDARD PLATE

Measured: mutagenic call

C[C@@H]1CC[C@@]2(OC1)O[C@H]1CC3[C@@H]4CC=C5C[C@@H](O[C@@H]6O[C@H](CO)[C@@H](O[C@@H]7O[C@@H](C)[C@H](O)[C@@H](O)[C@H]7O)[C@H](O)[C@H]6O[C@@H]6O[C@@H](C)[C@H](O)[C@@H](O)[C@H]6O)CC[C@]5(C)[C@H]4CC[C@]3(C)[C@H]1[C@@H]2C (some centres undefined)
inactive: [1] inactive; negative | Test System: AMES SALMONELLA TYPHIMURIUM, Strain/Indicator: TA98, Metabolic Activation: RAT, LIVER, S-9, PHENOBARBITAL, Method: STANDARD PLATE inactive; negative | [2] inactive; negative | Test System: AMES SALMONELLA TYPHIMURIUM, Strain/Indicator: TA100, Metabolic Activation: RAT, LIVER, S-9, PHENOBARBITAL, Method: STANDARD PLATE inactive; negative

COC(=O)c1ccc(C(=O)OC)cc1
inactive: End Point: IN VITRO CHROMOSOMAL ABERRATIONS, Test System: CHO-LB CELLS, Metabolic Activation: NONE inactive; negative | End Point: IN VITRO CHROMOSOMAL ABERRATIONS, Test System: CHO-LB CELLS, Metabolic Activation: RAT, LIVER, S-9, AROCLOR 1254 inactive; negative | Test System: AMES SALMONELLA TYPHIMURIUM, Strain/Indicator: TA98, Metabolic Activation: HAMSTER, LIVER, S-9, AROCLOR 1254 (10%), Method: PREINCUBATION inactive; negative | Test System: AMES SALMONELLA TYPHIMURIUM, Strain/Indicator: TA98, Metabolic Activation: NONE, Method: PREINCUBATION inactive; negative | [1] inactive; negative | Test System: AMES SALMONELLA TYPHIMURIUM, Strain/Indicator: TA98, Metabolic Activation: RAT LIVER S-9, AROCLOR 1254, Method: STANDARD PLATE inactive; negative | Test System: AMES SALMONELLA TYPHIMURIUM, Strain/Indicator: TA98, Metabolic Activation: RAT LIVER S-9, PHENOBARBITAL AND BETA-NAPHTHOFLAVONE, Method: PREINCUBATION inactive; negative | Test System: AMES SALMONELLA TYPHIMURIUM, Strain/Indicator: TA98, Metabolic Activation: RAT, LIVER, S-9, AROCLOR 1254 (10%), Method: PREINCUBATION inactive; negative | Test System: AMES SALMONELLA TYPHIMURIUM, Strain/Indicator: TA98, Metabolic Activation: RAT, LIVER, S-9, AROCLOR 1254, Method: STANDARD PLATE inactive; negative | Test System: AMES SALMONELLA TYPHIMURIUM, Strain/Indicator: TA98, Metabolic Activation: S-9, Method: STANDARD PLATE inactive; negative | Test System: AMES SALMONELLA TYPHIMURIUM, Strain/Indicator: TA100, Metabolic Activation: HAMSTER, LIVER, S-9, AROCLOR 1254 (10%), Method: PREINCUBATION inactive; negative | Test System: AMES SALMONELLA TYPHIMURIUM, Strain/Indicator: TA100, Metabolic Activation: NONE, Method: PREINCUBATION inactive; negative | [2] inactive; negative | Test System: AMES SALMONELLA TYPHIMURIUM, Strain/Indicator: TA100, Metabolic Activation: RAT LIVER S-9, AROCLOR 1254, Method: STANDARD PLATE inactive; negative | Test System: AMES SALMONELLA TYPHIMURIUM, Strain/Indicator: TA100, Metabolic Activation: RAT LIVER S-9, PHENOBARBITAL AND BETA-NAPHTHOFLAVONE, Method: PREINCUBATION inactive; negative | Test System: AMES SALMONELLA TYPHIMURIUM, Strain/Indicator: TA100, Metabolic Activation: RAT, LIVER, S-9, AROCLOR 1254 (10%), Method: PREINCUBATION inactive; negative | Test System: AMES SALMONELLA TYPHIMURIUM, Strain/Indicator: TA100, Metabolic Activation: RAT, LIVER, S-9, AROCLOR 1254, Method: STANDARD PLATE inactive; negative | Test System: AMES SALMONELLA TYPHIMURIUM, Strain/Indicator: TA100, Metabolic Activation: S-9, Method: STANDARD PLATE inactive; negative | Test System: AMES SALMONELLA TYPHIMURIUM, Strain/Indicator: TA102, Metabolic Activation: NONE, Method: STANDARD PLATE inactive; negative | Test System: AMES SALMONELLA TYPHIMURIUM, Strain/Indicator: TA102, Metabolic Activation: S-9, Method: STANDARD PLATE inactive; negative | Test System: AMES SALMONELLA TYPHIMURIUM, Strain/Indicator: TA1535, Metabolic Activation: HAMSTER, LIVER, S-9, AROCLOR 1254 (10%), Method: PREINCUBATION inactive; negative | Test System: AMES SALMONELLA TYPHIMURIUM, Strain/Indicator: TA1535, Metabolic Activation: NONE, Method: PREINCUBATION inactive; negative | Test System: AMES SALMONELLA TYPHIMURIUM, Strain/Indicator: TA1535, Metabolic Activation: NONE, Method: STANDARD PLATE inactive; negative | Test System: AMES SALMONELLA TYPHIMURIUM, Strain/Indicator: TA1535, Metabolic Activation: RAT LIVER S-9, AROCLOR 1254, Method: STANDARD PLATE inactive; negative | Test System: AMES SALMONELLA TYPHIMURIUM, Strain/Indicator: TA1535, Metabolic Activation: RAT LIVER S-9, PHENOBARBITAL AND BETA-NAPHTHOFLAVONE, Method: PREINCUBATION inactive; negative | Test System: AMES SALMONELLA TYPHIMURIUM, Strain/Indicator: TA1535, Metabolic Activation: RAT, LIVER, S-9, AROCLOR 1254 (10%), Method: PREINCUBATION inactive; negative | Test System: AMES SALMONELLA TYPHIMURIUM, Strain/Indicator: TA1535, Metabolic Activation: RAT, LIVER, S-9, AROCLOR 1254, Method: STANDARD PLATE inactive; negative | Test System: AMES SALMONELLA TYPHIMURIUM, Strain/Indicator: TA1535, Metabolic Activation: S-9, Method: STANDARD PLATE inactive; negative | Test System: AMES SALMONELLA TYPHIMURIUM, Strain/Indicator: TA1537, Metabolic Activation: HAMSTER, LIVER, S-9, AROCLOR 1254 (10%), Method: PREINCUBATION inactive; negative | Test System: AMES SALMONELLA TYPHIMURIUM, Strain/Indicator: TA1537, Metabolic Activation: NONE, Method: PREINCUBATION inactive; negative | Test System: AMES SALMONELLA TYPHIMURIUM, Strain/Indicator: TA1537, Metabolic Activation: NONE, Method: STANDARD PLATE inactive; negative | Test System: AMES SALMONELLA TYPHIMURIUM, Strain/Indicator: TA1537, Metabolic Activation: RAT LIVER S-9, AROCLOR 1254, Method: STANDARD PLATE inactive; negative | Test System: AMES SALMONELLA TYPHIMURIUM, Strain/Indicator: TA1537, Metabolic Activation: RAT LIVER S-9, PHENOBARBITAL AND BETA-NAPHTHOFLAVONE, Method: PREINCUBATION inactive; negative | Test System: AMES SALMONELLA TYPHIMURIUM, Strain/Indicator: TA1537, Metabolic Activation: RAT, LIVER, S-9, AROCLOR 1254 (10%), Method: PREINCUBATION inactive; negative | Test System: AMES SALMONELLA TYPHIMURIUM, Strain/Indicator: TA1537, Metabolic Activation: RAT, LIVER, S-9, AROCLOR 1254, Method: STANDARD PLATE inactive; negative | Test System: AMES SALMONELLA TYPHIMURIUM, Strain/Indicator: TA1537, Metabolic Activation: S-9, Method: STANDARD PLATE inactive; negative | Test System: AMES SALMONELLA TYPHIMURIUM, Strain/Indicator: TA1538, Metabolic Activation: NONE, Method: PREINCUBATION inactive; negative | Test System: AMES SALMONELLA TYPHIMURIUM, Strain/Indicator: TA1538, Metabolic Activation: NONE, Method: STANDARD PLATE inactive; negative | Test System: AMES SALMONELLA TYPHIMURIUM, Strain/Indicator: TA1538, Metabolic Activation: RAT LIVER S-9, AROCLOR 1254, Method: STANDARD PLATE inactive; negative | Test System: AMES SALMONELLA TYPHIMURIUM, Strain/Indicator: TA1538, Metabolic Activation: RAT LIVER S-9, PHENOBARBITAL AND BETA-NAPHTHOFLAVONE, Method: PREINCUBATION inactive; negative | Test System: AMES SALMONELLA TYPHIMURIUM, Strain/Indicator: TA1538, Metabolic Activation: RAT, LIVER, S-9, AROCLOR 1254, Method: STANDARD PLATE inactive; negative | Test System: AMES SALMONELLA TYPHIMURIUM, Strain/Indicator: TA1538, Metabolic Activation: S-9, Method: STANDARD PLATE inactive; negative | Test System: E.COLI, Strain/Indicator: WP2UVRA, Metabolic Activation: NONE, Method: PREINCUBATION inactive; negative | Test System: E.COLI, Strain/Indicator: WP2UVRA, Metabolic Activation: RAT LIVER S-9, PHENOBARBITAL AND BETA-NAPHTHOFLAVONE, Method: PREINCUBATION inactive; negative | Test System: UDS HUMAN HELA CELLS, Strain/Indicator: THYMIDINE INCORPORATION, Metabolic Activation: NONE, Method: LIQUID SCINTILLATION COUNTING inactive; negative
